Measurements published in patent US6683077B2, “2-Amino-benzoxazinones for the treatment of viral infections” (G.D. Searle & Co., priority 1996, dated 2004).

Experiments:
[1] = target: T1, Human leukocyte elastase (HLE) (Homo sapiens, UniProt P08246); experiment: Human leukocyte elastase assay; format: biochemical
T1 construct: gift of R. Senior, Washington University
T1 sequence (P08246 30-267): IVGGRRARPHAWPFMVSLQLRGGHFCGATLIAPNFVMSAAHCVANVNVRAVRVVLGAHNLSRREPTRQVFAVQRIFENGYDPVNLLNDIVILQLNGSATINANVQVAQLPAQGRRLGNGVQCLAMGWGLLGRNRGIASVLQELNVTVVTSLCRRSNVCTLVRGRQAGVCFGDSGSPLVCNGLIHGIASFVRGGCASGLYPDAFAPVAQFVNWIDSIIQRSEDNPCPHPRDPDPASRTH
Description: Human leukocyte elastase (HLE) (gift of R. Senior, Washington University) was dissolved in saline at 1 mg/ml and further diluted 1/20 in assay buffer (0.2 M Tris, pH 8.0) before use. 10 μl of test compound in DMSO (or DMSO alone), 100 μl of assay buffer and 50 μl of enzyme were added to 96 well plates, mixed and pre-incubated for 30 minutes at ambient temperature. Reaction was initiated by addition of 40 μl of 2.5 mM methoxysuccinyl-Ala-Ala-Pro-Val-p-nitroanilide (Sigma; 25 mM in DMSO diluted 1/10 in assay buffer before use). The increase in absorbance at 405 nm was monitored for 10 minutes with a Biotek EL340 plate reader.

[2] = tested on: HCMV engineered virus RC256; experiment: microbe, parasite or virus in culture; format: cell-based, human cytomegalovirus; conditions: Human betaherpesvirus 5, Fibroblast, read-out: Antiviral Activity RC256, first value (EC50)
[3] = @ 10 (concentration unit not given)
[4] = @ 1 (concentration unit not given)

**Q.** For `CCN(C(=O)[C@H](Cc1ccc(OC)cc1)Nc1nc2ccc(CNC(=O)OC(C)(C)C)c(C)c2c(=O)o1)c1ccccc1` [Example 7u, 1,1-Dimethylethyl[[2-[[2-(ethylphenylamino)-1S-[(4-methoxyphenyl)methyl]-2-oxoethyl]amino]-5-methyl-4-oxo-4H-3,1-benzoxazin-6-yl]methyl]carbamate], which “HLE, % @ concentration” value [1, 3] is on record?
**A.** 75% @ 10

**Q.** What about the EC50 [2] of the same compound?
**A.** 35 µM

**Q.** `CCN(Cc1ccccc1)C(=O)[C@H](Cc1ccc(OC)cc1)Nc1nc2ccc(CNC(=O)OC(C)(C)C)c(C)c2c(=O)o1` [Example 7o, 1,1-Dimethylethyl[[2-[[2-[ethyl(phenylmethyl)amino]-1S-[(4-methoxyphenyl)methyl]-2-oxoethyl]amino]-5-methyl-4-oxo-4H-3,1-benzoxazin-6-yl]methyl]carbamate] was tested. Which “HLE, % @ concentration” value ([1]; @ 12.5 (concentration unit not given)) did it give?
**A.** 42% @ 12.5

**Q.** And the EC50 [2]?
**A.** 24 µM

**Q.** Which “HLE, % @ concentration” value [1, 3] does the source give for `CCN(C(=O)[C@H](Cc1ccccc1)Nc1nc2ccc(CNC(=O)OC(C)(C)C)c(C)c2c(=O)o1)c1ccccc1` [Example 7n] here?
**A.** 16% @ 10

**Q.** And the EC50 [2]?
**A.** 16 µM

**Q.** Which “HLE, % @ concentration” value ([1]; @ 100 (concentration unit not given)) does the source give for `COC(=O)[C@H](CCS(C)(=O)=O)Nc1nc2ccc(NC(=O)OC(C)(C)C)c(C)c2c(=O)o1` [Example 6u, N-[6-[[(1,1-Dimethylethoxy)carbonyl]amino]-5-methyl-4-oxo-4H-3,1-benzoxazin-2-yl]-L-methionine sulfone, methyl ester] here?
**A.** 29% @ 100

**Q.** And the EC50 [2]?
**A.** 100 µM

**Q.** Which results are given for `COC(=O)C1(Nc2nc3ccc(NC(=O)OC(C)(C)C)c(C)c3c(=O)o2)CC1` [Example 6x, N-[6-[[(1,1-Dimethylethoxy)carbonyl]amino]-5-methyl-4-oxo-4H-3,1-benzoxazin-2-yl]-1-cyclopropanecarboxylic acid, methyl ester]?
**A.** HLE, % @ concentration [1, 3]: 25% @ 10; EC50 [2]: > 100 µM

**Q.** How did the “HLE, % @ concentration” value [1, 4] turn out when `Cc1c(CNC(=O)N[C@H](C)c2ccccc2)ccc2nc(N[C@@H](Cc3ccccc3)C(=O)N(C)Cc3ccccc3)oc(=O)c12` [Example 12g] was run?
**A.** 45% @ 1

**Q.** What about the EC50 [2] of the same compound?
**A.** 30 µM

**Q.** What does the source list for `COc1ccc(C[C@H](Nc2nc3ccc(NC(=O)c4ccccn4)c(C)c3c(=O)o2)C(=O)N(C)Cc2ccccc2)cc1` [Example 11p, N-[2-[[1S-[(4-Methoxyphenyl)methyl]-2-[-methyl(phenylmethyl)amino]-2-oxoethyl]amino]-5-methyl-4-oxo-4H-3,1-benzoxazin-6-yl]pyridine-2-carboxamide]?
**A.** HLE, % @ concentration [1, 3]: 40% @ 10; EC50 [2]: 8.5 µM

**Q.** What does the source list for `CCOC(=O)NCc1ccc2nc(N[C@@H](Cc3ccccc3)C(=O)N(C)Cc3ccccc3)oc(=O)c2c1C` [Example 9k, Ethyl[[5-methyl-2-[[2-[methyl(phenylmethyl)amino]-2-oxo-1S-(phenylmethyl)ethyl]amino]-4-oxo-4H-3,1-benzoxazin-6-yl]methyl]carbamate]?
**A.** HLE, % @ concentration [1, 3]: 29% @ 10; EC50 [2]: 11 µM

**Q.** Which results are given for `Cc1c(N(C)C)ccc2nc(N[C@@H](Cc3ccccc3)C(=O)N(C)Cc3ccccc3)oc(=O)c12` [Example 16, αS-[[6-(Dimethylamino)-5-methyl-4-oxo-4H-3,1-benzoxazin-2-yl]amino]-N-methyl-N-(phenylmethyl) benzenepropanamide]?
**A.** HLE, % @ concentration [1, 3]: 59% @ 10; EC50 [2]: 17 µM

**Q.** How did the “HLE, % @ concentration” value [1, 4] turn out when `Cc1c(CNC(=O)OC(C)(C)C)ccc2nc(N[C@@H](Cc3ccc(Cl)cc3)C(=O)N(C)Cc3ccccc3)oc(=O)c12` [Example 7p, 1,1-Dimethylethyl[[2-[[1S-[(4-chlorophenyl)methyl]-2-[methyl(phenylmethyl)amino]-2-oxoethyl]amino]-5-methyl-4-oxo-4H-3,1-benzoxazin-6-yl]methyl]carbamate] was run?
**A.** 42% @ 1

**Q.** And the EC50 [2]?
**A.** 20 µM

**Q.** `Cc1c(CNC(=O)OC(C)(C)C)ccc2nc(N[C@@H](Cc3ccccc3)C(=O)N(C)c3ccccc3)oc(=O)c12` [Example 7m, 1,1-Dimethylethyl([5-methyl-2-[[2-(methylphenylamino)-2-oxo-1S-(phenylmethyl)ethyl]amino]-5-methyl-4-oxo-4H-3,1-benzoxazin-6-yl]methyl]carbamate] was tested. Which “HLE, % @ concentration” value [1, 3] did it give?
**A.** 55% @ 10

**Q.** And the EC50 [2]?
**A.** 5.2 µM

**Q.** What does the source list for `Cc1c(CNC(=O)NCc2ccccc2)ccc2nc(N[C@@H](Cc3ccccc3)C(=O)N(C)Cc3ccccc3)oc(=O)c12` [Example 12h, N-Methyl-αS-[[5-methyl-4-oxo-6-[[[[(phenylmethyl)amino]carbonyl]amino]methyl]-4H-3,1-benzoxazin-2-yl]amino]-N-(phenylmethyl)benzenepropanamide]?
**A.** HLE, % @ concentration [1, 4]: 58% @ 1; EC50 [2]: 18 µM

**Q.** With `COc1ccc(C[C@H](Nc2nc3ccc(N(C)C)c(C)c3c(=O)o2)C(=O)N(C)c2ccc(Cl)cc2)cc1` [Example 16c, N-(4-Chlorophenyl)-αS-[[6-(dimethylamino)-5-methyl-4-oxo-4H-3,1-benzoxazin-2-yl]amino]-4-methoxy-N-methylbenzenepropanamide] as the compound, how does the “HLE, % @ concentration” value [1, 3] read?
**A.** 18% @ 10

**Q.** And the EC50 [2]?
**A.** 18 µM

**Q.** What does the source list for `COc1ccc(C[C@H](Nc2nc3ccc(CNC(=O)OC(C)(C)C)c(C)c3c(=O)o2)C(=O)N(C)c2ccccc2)cc1` [Example 7t, 1,1-Dimethylethyl[[2-[[1S-[(4-methoxyphenyl)methyl]-2-(methylphenylamino)-2-oxoethyl]amino]-5-methyl-4-oxo-4H-3,1-benzoxazin-6-yl]methyl]carbamate]?
**A.** HLE, % @ concentration [1, 3]: 20% @ 10; EC50 [2]: 18 µM

**Q.** Which “HLE, % @ concentration” value [1, 4] does the source give for `Cc1c(CNC(=O)Nc2ccccc2)ccc2nc(N[C@@H](Cc3ccccc3)C(=O)N(C)Cc3ccccc3)oc(=O)c12` [Example 12f, N-Methyl-αS-[[5-methyl-4-oxo-6-[[[(phenylamino)carbonyl]amino]methyl]-4H-3,1-benzoxazin-2-yl]amino]-N-(phenylmethyl)benzenepropanamide] here?
**A.** 55% @ 1

**Q.** And the EC50 [2]?
**A.** 14 µM

**Q.** Which results are given for `COc1ccc(C[C@H](Nc2nc3ccc(CNC(=O)CC(C)(C)C)c(C)c3c(=O)o2)C(=O)N(C)Cc2ccccc2)cc1` [Example 9m, αS-[[6-[[(3,3-Dimethyl-1-oxobutyl)amino]methyl]-5-methyl-4-oxo-4H-3,1-benzoxazin-2-yl]amino]-4-methoxy-N-methyl-N-(phenylmethyl)benzenepropanamide]?
**A.** HLE, % @ concentration [1, 4]: 73% @ 1; EC50 [2]: 14 µM

**Q.** With `Cc1c(CNC(=O)OC2CCCC2)ccc2nc(N[C@@H](Cc3ccccc3)C(=O)N(C)Cc3ccccc3)oc(=O)c12` [Example 18f, Cyclopentyl[[5-methyl-2-[[2-[methyl(phenylmethyl)amino]-2-oxo-1S-(phenylmethyl)ethyl]amino]-4-oxo-4H-3,1-benzoxazin-6-yl]methyl]carbamate] as the compound, how does the “HLE, % @ concentration” value [1, 4] read?
**A.** 59% @ 1

**Q.** `CCN(Cc1ccccc1)C(=O)[C@H](Cc1ccccc1)Nc1nc2ccc(CNC(=O)OC(C)(C)C)c(C)c2c(=O)o1` [Example 7l, 1,1-Dimethylethyl[[2-[[2-[ethyl(phenylmethyl)amino]-2-oxo-1S-(phenylmethyl)ethyl]amino]-5-methyl-4-oxo-4H-3,1-benzoxazin-6-yl]methyl]carbamate] was tested. Which EC50 [2] did it give?
**A.** 13 µM

**Q.** `COc1ccc(C[C@H](Nc2nc3ccc(CNC(=O)CCc4ccccc4)c(C)c3c(=O)o2)C(=O)N(C)Cc2ccccc2)cc1` [Example 9u, 4-Methoxy-N-methyl-αS-[[5-methyl-6-[[(1-oxo-3-phenylpropyl)amino]methyl]-4-oxo-4H-3,1-benzoxazin-2-yl]amino]-N-(phenylmethyl)benzenepropanamide] was tested. Which EC50 [2] did it give?
**A.** 18 µM

**Q.** How did the EC50 [2] turn out when `Cc1c(NC(=O)OC(C)(C)C)ccc2nc(N[C@@H](Cc3ccc(I)cc3)C(=O)N(C)C)oc(=O)c12` [Example 6cc, 1,1-Dimethylethyl[2-[[2-(dimethylamino)-1S-[(4-iodophenyl)methyl]-2-oxoethyl]amino]-5-methyl-4-oxo-4H-3,1-benzoxazin-6-yl]carbamate] was run?
**A.** 40 µM

**Q.** Which EC50 [2] does the source give for `COc1ccc(C[C@H](Nc2nc3cccc(OC)c3c(=O)o2)C(=O)N(C)Cc2ccccc2)cc1` [Example 1u, N-[5-Methoxy-4-oxo-4H-3,1-benzoxazin-2-yl]-O-methyl-L-tyrosine, N-methyl-N-phenylmethylamide] here?
**A.** 14 µM

**Q.** `COC(=O)[C@H](Cc1c[nH]c2ccccc12)Nc1nc2cccc(C)c2c(=O)o1` [Example 1m, N-(5-Methyl-4-oxo-4H-3,1-benzoxazin-2-yl)-L-tryptophan, methyl ester] was tested. Which EC50 [2] did it give?
**A.** 56 µM

**Q.** For `COc1ccc(C[C@H](Nc2nc3ccc(CNC(=O)CCc4cccnc4)c(C)c3c(=O)o2)C(=O)N(C)Cc2ccccc2)cc1` [Example 9d, N-[[2-[[1S-[(4-Methoxyphenyl)methyl]-2-[methyl(phenylmethyl)amino]-2-oxoethyl]amino]-5-methyl-4-oxo-4H-3,1-benzoxazin-6-yl]methyl]pyridine-3-propanamide], which EC50 [2] is on record?
**A.** 41 µM

**Q.** How did the EC50 [2] turn out when `COc1ccc(C[C@H](Nc2nc3ccc(CNC(=O)NC(C)(C)C)c(C)c3c(=O)o2)C(=O)N(C)Cc2ccccc2)cc1` [Example 12d, αS-[[6-[[[[(1,1-Dimethylethyl)amino]carbonyl]amino]methyl]-5-methyl-4-oxo-4H-3,1-benzoxazin-2-yl]amino]-4-methoxy-N-methyl-N-(phenylmethyl)benzenepropanamide] was run?
**A.** 14 µM

**Q.** For `Cc1cccc2nc(N[C@H](C(=O)OC(C)(C)C)c3ccccc3)oc(=O)c12` [Example 1o, N-(5-Methyl-4-oxo-4H-3,1-benzoxazin-2-yl)-L-phenylglycine, 1,1-dimethylethyl ester], which EC50 [2] is on record?
**A.** 10 µM
